According to PMC4151236, “Early identification of hERG liability in drug discovery programs by automated patch clamp” (Frontiers in Pharmacology, 2014):

Target: T1, hERG (Kv11.1) (Homo sapiens, UniProt Q12809)
T1 construct: gene KCNH2
Experiment: automated whole-cell patch clamp (QPatch), CHO hERG DUO cells, three-point dose-response
Type: cell-based

T1 sequence (Q12809 whole entry): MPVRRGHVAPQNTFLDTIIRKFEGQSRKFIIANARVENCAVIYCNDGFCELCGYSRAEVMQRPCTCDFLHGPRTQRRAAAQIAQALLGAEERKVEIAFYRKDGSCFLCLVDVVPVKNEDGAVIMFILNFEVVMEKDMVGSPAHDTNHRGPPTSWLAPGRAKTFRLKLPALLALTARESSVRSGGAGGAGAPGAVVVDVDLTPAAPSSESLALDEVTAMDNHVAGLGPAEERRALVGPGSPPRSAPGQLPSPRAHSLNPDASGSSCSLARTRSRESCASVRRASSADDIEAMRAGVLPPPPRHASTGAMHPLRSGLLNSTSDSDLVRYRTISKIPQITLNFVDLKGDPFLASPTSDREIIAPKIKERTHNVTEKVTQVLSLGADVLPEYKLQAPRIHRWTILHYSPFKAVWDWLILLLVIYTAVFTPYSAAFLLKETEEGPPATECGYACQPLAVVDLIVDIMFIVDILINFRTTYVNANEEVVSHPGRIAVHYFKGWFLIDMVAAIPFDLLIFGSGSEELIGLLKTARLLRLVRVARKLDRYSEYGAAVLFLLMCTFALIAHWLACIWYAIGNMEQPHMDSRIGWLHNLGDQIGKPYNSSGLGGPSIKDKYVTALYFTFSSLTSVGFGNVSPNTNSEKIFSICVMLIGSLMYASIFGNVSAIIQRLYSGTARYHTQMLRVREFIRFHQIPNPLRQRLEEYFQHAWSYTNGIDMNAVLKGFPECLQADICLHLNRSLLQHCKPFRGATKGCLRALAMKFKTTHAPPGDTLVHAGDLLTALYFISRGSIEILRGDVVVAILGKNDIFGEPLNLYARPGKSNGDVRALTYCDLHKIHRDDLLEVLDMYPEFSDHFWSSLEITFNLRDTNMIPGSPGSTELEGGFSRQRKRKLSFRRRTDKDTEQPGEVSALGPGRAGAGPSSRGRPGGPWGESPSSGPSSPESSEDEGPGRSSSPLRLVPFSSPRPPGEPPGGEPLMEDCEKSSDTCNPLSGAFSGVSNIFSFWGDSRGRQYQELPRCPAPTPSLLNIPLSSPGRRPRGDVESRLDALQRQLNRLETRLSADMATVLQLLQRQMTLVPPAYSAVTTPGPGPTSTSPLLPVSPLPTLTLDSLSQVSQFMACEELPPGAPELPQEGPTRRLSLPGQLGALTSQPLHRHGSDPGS

COc1cc(N)c(Cl)cc1C(=O)NC1CCN(CCCOc2ccc(F)cc2)CC1OC (stereo not shown) [Cisapride]
automated whole-cell patch clamp (QPatch), CHO hERG DUO cells, three-point dose-: superimposed to visualize the effect of increasing concentrations of the known hERG blocker Cisapride
